Laboratory results reported in patent publication US6054318A, “Expression of the glucose oxidase gene in transgenic organisms” (Commonwealth Scientific And Industrial Research Organization, priority 1994, dated 2000).

How the values were obtained:
[1] = system: Rhyzoctonia solani; assay: In vitro growth of R. solani in PD broth, microtitre plate reader; type: cell-based; details: PD broth plus gluconic acid
Description: Glucose oxidase was examined in vitro for its ability to inhibit the growth of an Australian isolate of R. solani. Different concentrations of A. niger glucose oxidase suspended in potato dextrose broth and different amounts of filtrate from T. flavus 32908 and GOH-1 were inoculated with R. solani and fungal growth was monitored using a microtitre plate reader. Duplicates were performed for each experiment and the experiment was repeated twice. […] Growth inhibition curves for R. solani were calculated 26 hours after the start of fungal growth (FIG. 5). […] These values are approximately twice the glucose oxidase IC50 value determined for V. dahliae (2.2 μg/ml).

[2] = system: Verticillium dahliae microsclerotia and mycelia; details: added to growth media; cited from earlier work
[3] = system: Talaromyces flavus glucose oxidase, wild type; details: T. flavus glucose oxidase; read-out: Km for β-D-glucose; cited from earlier work
[4] = biological target: Aspergillus niger glucose oxidase, wild type (Aspergillus niger, UniProt P13006); details: A. niger glucose oxidase; read-out: Km for β-D-glucose; cited from earlier work
Sequence of Aspergillus niger glucose oxidase, wild type (P13006 17-605): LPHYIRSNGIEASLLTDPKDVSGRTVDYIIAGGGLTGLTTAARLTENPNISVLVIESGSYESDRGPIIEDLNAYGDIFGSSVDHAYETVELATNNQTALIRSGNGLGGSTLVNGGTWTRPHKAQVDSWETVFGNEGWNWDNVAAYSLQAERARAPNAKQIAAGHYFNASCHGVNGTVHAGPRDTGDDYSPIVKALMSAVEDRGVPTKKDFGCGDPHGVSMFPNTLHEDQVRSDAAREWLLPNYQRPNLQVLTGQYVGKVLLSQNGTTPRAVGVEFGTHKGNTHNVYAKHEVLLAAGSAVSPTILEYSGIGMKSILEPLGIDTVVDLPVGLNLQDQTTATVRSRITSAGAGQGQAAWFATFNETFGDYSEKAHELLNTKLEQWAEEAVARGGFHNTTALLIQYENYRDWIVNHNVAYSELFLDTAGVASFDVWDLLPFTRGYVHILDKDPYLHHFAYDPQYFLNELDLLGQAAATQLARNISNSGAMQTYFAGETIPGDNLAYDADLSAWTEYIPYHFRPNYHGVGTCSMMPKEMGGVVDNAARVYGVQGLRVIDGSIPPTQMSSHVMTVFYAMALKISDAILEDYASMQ

SMILES	growth profile of R. solani compared with PD broth alone [1]	inhibition of microsclerotial germination and mycelial growth [2]	Km [3] [mM]	Km [4] [mM]
O=C(O)[C@H](O)[C@@H](O)[C@H](O)[C@H](O)CO [gluconic acid]	very similar	did not cause inhibition	–	–
O=C[C@H](O)[C@@H](O)[C@H](O)[C@H](O)CO [glucose]	–	did not cause inhibition	–	–
OO [hydrogen peroxide]	–	inhibited microsclerotial germination and mycelial growth	–	–
OC[C@H]1O[C@@H](O)[C@H](O)[C@@H](O)[C@@H]1O [β-D-glucose]	–	–	10.9	27
